# “And” between values parts separate entries of the source, which are not always exact repeats. Identical values can stand only once.
# Columns and labels:
# human platelets = experiment: Histone-induced platelet aggregation; assay type: cell-based; details: compounds added prior to histones 150 μg/mL
# [1] = test system: Human platelets in whole blood; experiment: Histone-induced platelet degranulation (ATP release); assay type: cell-based; details: compounds added prior to histones 400 μg/mL
# mice = experiment: In-vivo histone toxicity assay, organ damage markers at 4 hr; parameters: species or system mouse; details: 6.25, 25 and 100 mg/kg i.p. 10 min prior to histones 50 mg/kg i.v.; blood at 4 hr
# human liver microsomes = experiment: Phase I metabolism in human liver microsomes; details: 1 μM, 1 h incubation, NADPH, 0.3 mg/ml microsomes
# Procedure: (§1) A stock concentration of 25 μM mCBS dissolved in 50% methanol in water was added to the reaction tubes (10 μL). […] Samples were then vortex-mixed and centrifuged for 10 min at 14,000 rpm. Half of the samples (375 μl) were transferred to glass tubes and evaporated under a stream of nitrogen and at 37° C. Samples were then reconstituted in mobile phase A (250 μL). The final concentration of mCBS was 1 μM in the incubation medium.
# (§2) The reaction mixtures were incubated for 1 hour with sampling in triplicate at 0, 15, 30, 45 and 60 min time points. A negative control (no NADPH) was used in parallel with the study samples. A positive control; midazolam, 25 μM (10 μL) was incubated in the same condition for 1 h. The final concentration of midazolam was 1 μM in the incubation medium
# rat liver microsomes = experiment: Phase I metabolism in rat liver microsomes; details: 1 μM, 1 h incubation, NADPH, 0.3 mg/ml microsomes
# Procedure: as §1, §2
# dog liver microsomes = experiment: Phase I metabolism in dog liver microsomes; details: 1 μM, 1 h incubation, NADPH, 0.3 mg/ml microsomes
# Procedure: as §1, §2
# Solubility in vehicle = assay type: physicochemical; details: in water/aqueous
# Procedure: The STX studies described below were carried out inter alia to provide a preliminary understanding of the toxicity and PK profile of β-O-methyl cellobioside sulfate compounds such as mCBS.Na utilised in the present invention.
# Sprague Dawley rats = test system: Sprague Dawley rats
# Procedure: This study examined acute toxicity from single IV administration of mCBS in rats with doses up to 1000 mg/kg.
# The acute toxicity of β-O-methyl cellobioside sulfate (mCBS) was assessed in Sprague Dawley rats following intravenous administration of a single bolus dose. A total of five groups of n=3 adult female rats were treated with 10, 30, 100, 300 and 1000 mg/kg doses of mCBS test item in the form of the sodium salt (mCBS.Na) in this dose range finding study. […] The rats were then observed for 7 days prior to termination without necropsy.
# Sprague-Dawley rats = details: 5575 mg/kg/day of mCBS (free base), continuous IV infusion 7 days
# Procedure: The objective of these studies was to determine the toxicity of the test item, mCBS, when administered by continuous (24 hours/day) intravenous infusion through a surgically implanted catheter for 7 consecutive days to Sprague-Dawley rats.
# The test and control item dose formulations of mCBS (in the form of the heptasodium salt mCBS.Na) were administered to groups of rats by continuous (24 hours/day) intravenous infusion for 7 consecutive days as described in the Table 14 below.
# Parameters monitored during this study included mortality, clinical observations, body weights and food consumption. In addition, hematology, coagulation and clinical chemistry parameters were evaluated on Day 9. Blood samples were collected from the animals at timepoints relative to the start of the infusion for analysis of test item concentration in plasma. At termination (Day 9), all animals were euthanized and subjected to a gross necropsy examination. Organ weights were measured on selected organs and a selected list of tissues, including gross lesions, were retained and prepared for microscopic evaluation.
# [2] = Stability of mCBS vs CBS in formulated clinical material (HPLC); assay type: physicochemical; details: formulated clinical material in phosphate buffer, 5±3° C., 25±2° C./60% RH, 40±2° C./75% RH
# Procedure: Stability studies were carried out at 5±3° C., 25±2° C./60% RH and 40±2° C./75% RH ° C. conditions. Levels of both mCBS and cellobiose sulfate (CBS) were tracked in formulated clinical material (i.e. mCBS in phosphate buffer) via HPLC.
# [3] = mCBS vs CBS levels in bulk powder stored at −20° C. (CAD); assay type: physicochemical
# Procedure: Table 2b compares mCBS vs CBS levels in a representative batch of bulk powder when stored at −20° C. over 24 months. T is for time in months. T=0 or T0 represents analytical results carried out on completion of manufacture. Subsequent analysis indicated are relative to the initial analysis of the drug powder or formulation (e.g. […] Analytical method employing CAD (Charged Aerosol Detector) was used to measure the level of mCBS purity and its impurities and expressed as CAD %.
# [4] = mCBS vs CBS levels in phosphate buffered pH 7.5 clinical trial formulation stored at 2-8° C. (CAD); assay type: physicochemical
# human RBCs [5] = experiment: Histone-induced RBC aggregation (flow cytometry autofluorescence, SEM); assay type: cell-based; details: 0-200 μg/mL added prior to 400 μg/mL histones
# human RBCs [6] = experiment: Histone-induced RBC fragility / lysis under shear; assay type: cell-based; details: 0-200 μg/mL prior to 400 μg/mL histones 60 min; 100 mm/s, 40× repetitions
# [7] = Lipid bilayer assay (histone rupture of bilayers)
# Procedure: Lipid bilayer assays. Artificial lipid bilayers, prepared as previously described (Rebbeck, R. T. et al. The beta (1a) subunit of the skeletal DHPR binds to skeletal RyR1 and activates the channel via its 35-residue C-terminal tail. Biophys J 100, 922-930, doi:10.1016/j.bpj.2011.01.022 (2011).), separated symmetrical 150 mM or 250 mM KCl (pH ˜5.5) solutions. Histones (1 μM, 15.2 μg ml^−1) were added to bilayers alone or after 0.5-3 h incubation with 10 μM CBS (3.5 μg ml^−1) or 10 μM MTS (5.1 μg ml^−1) at −20° C. Current was recorded continuously after histone addition until the bilayers broke or the experiment was terminated.
# To examine this possibility artificial lipid bilayers were prepared and their susceptibility to histone rupture detected by changes in current across the bilayers.
# Wistar rats [8] = experiment: Rat caecal ligation and puncture (CLP), severe sepsis; assay type: in vivo
# Procedure: Rat caecal ligation and puncture (CLP) assay for sepsis. The CLP assay was performed in male Wistar rats as previously described (see Hubbard, W. J. et al. Cecal ligation and puncture. Shock 24 Suppl 1, 52-57 (2005).). Test compounds (50 mg kg^−1) dissolved in saline or an equivalent volume of saline only (Control cohort) were administered i.p. 5 min pre-CLP and 5, 10 and 15 h post-op until cessation of the experiment at 20 h. Sham-CLP rats underwent the same procedure, however, the caecum was not ligated or punctured and these rats received saline at the same times as above. At the conclusion of the experimental time period (20 h) or when morbidity required ethical euthanasia, the rats were anaesthetised and blood was collected via cardiac puncture into EDTA for subsequent analysis of liver (ALT) and kidney (creatinine) function by the Department of Pathology, The Canberra Hospital. The propensity for clots to form within the blood samples of the saline treated control CLP animals (despite the presence of EDTA) prevented successful analysis of plasma samples from all animals.
# Wistar rats [9] = experiment: Rat cardiac IRI model; assay type: in vivo; details: 30 mg kg−1 into left ventricle 5 min prior to reperfusion
# Procedure: Rat cardiac IRI model. […] Male Wistar rats were anaesthetised with isofluorane, intubated via tracheostomy and ventilated with a tidal volume of 1 ml 150 g^−1 and a respiratory rate of 65 breaths min^−1. Supplemental oxygen was delivered at a FiO2 of ˜30%. A left hemi-thoracotomy was performed to enable visualisation of the left ventricle. The left coronary arterial plexus (LCA) was occluded using an atraumatic snare for 30 min prior to reperfusion for 30 min. Ischemia was confirmed by myocardial hyperaemia. The test compounds (30 mg kg^−1) or an equivalent volume (200 μl) of saline were injected into the lumen of the left ventricle (confirmed with aspiration) 5 min prior to the release of the snare for the reperfusion phase.
# At the conclusion of reperfusion (30 min), Thioflavin S (1 ml 200 g^−1 of body weight) was slowly injected into the lumen of the left ventricle, to define the territory of microvascular obstruction (MVO) within the ischemic zone (IZ). The IZ territory was determined by the re-occlusion of the atraumatic snare and infusion of blue microspheres into the left ventricle (Unisperse Blue, BASF), distributed within solutions via ultrasonication using a CD-6800 (Unisonics) sonicator. […] Planimetry (Image J, Freeware) was used to quantify the areas of the IZ, MVO and necrosis.
# C57BL/6 mice = experiment: Murine deep vein thrombosis (DVT) model, histone-mediated; assay type: in vivo, mouse; details: CBS 50 mg/kg i.v. 5 min after histones 10 mg/kg i.v., 48 h
# Procedure: Murine deep vein thrombosis (DVT) model. The procedure used is largely as previously described (see Brill, A. et al. Neutrophil extracellular traps promote deep vein thrombosis in mice. J Thromb Haemost 10, 136-144, doi: 10.1111/j.1538-7836.2011.04544.x (2012)). […] The peritoneum and skin were closed following which all mice received an i.v. injection of histones via the tail vein (10 mg kg^−1) or an equivalent volume of saline followed 5 min later by an i.v. injection of test compounds (50 mg kg^−1) or saline. Mice were monitored for 48 h after which they were re-anesthetised, re-opened and any thrombi that had developed distal to the IVC stenosis were removed for analysis. Sham operated control animals received laparotomy and 90% ligation of the IVC, however the ligation was removed immediately after occlusion of the IVC.
# whole blood coagulation = experiment: ROTEM whole blood coagulation analysis (anticoagulant effect of compounds); details: NATEM assay, 50 and 100 μg/mL
compound,measurement,setting,value
"O=C[C@H](O)[C@@H](O)[C@H](O[C@@H]1O[C@H](CO)[C@@H](O)[C@H](O)[C@H]1O)[C@H](O)CO [CB, cellobiose]",histone-induced platelet aggregation,human platelets,no inhibitory activity
same,histone-induced platelet degranulation (ATP release),[1],no inhibitory activity
same,"protection from histone-induced organ damage (LDH, ALT, creatinine)",mice,inactive
Cc1ncc2n1-c1ccc(Cl)cc1C(c1ccccc1F)=NC2 [midazolam],phase I metabolic stability,human liver microsomes,almost completely metabolised
same,phase I metabolic stability,rat liver microsomes,almost completely metabolised
same,phase I metabolic stability,dog liver microsomes,almost completely metabolised
Sodium β-O-Methyl Cellobioside Sulfate [mCBS.Na],Solubility in Vehicle,Solubility in vehicle,~250 mg/mL in water/aqueous
same,"MTD estimate from potency assessment, sodium salt","Sprague Dawley rats; IV bolus single and 7-day studies, corrected for potency",~745 mg/kg
same,maximum tolerated dose (MTD),"Sprague Dawley rats; single IV bolus, female rats, 7 days observation, dose as sodium salt",1000 mg/kg
same,mortality,Sprague-Dawley rats,death of one female
cellobiose sulfate [CBS],level relative to starting amount (T=0) over time,[2],drops very rapidly and is almost gone by around 3 months
same,stability when stored in powder,[3]; 24 months,stable
same,level in bulk powder,[3]; T0 (months),0.23 CAD %
same,level in bulk powder,[3]; T1,0.25 CAD %
same,level in bulk powder,[3]; T3,0.28 CAD %
same,level in bulk powder,[3]; T6,0.32 CAD %
same,level in bulk powder,[3]; T9,0.36 CAD %
same,level in bulk powder,[3]; T12,0.36 CAD %
same,level in bulk powder,[3]; T18,0.36 CAD %
same,level in bulk powder,[3]; T24,0.29 CAD %
same,level in phosphate buffered pH 7.5 formulation,"[4]; 2-8° C., T0 (months)",0.25 CAD %
same,level in phosphate buffered pH 7.5 formulation,"[4]; 2-8° C., T2",0.03 CAD %
same,level in phosphate buffered pH 7.5 formulation,"[4]; 2-8° C., T3",0.07 CAD %
same,level in phosphate buffered pH 7.5 formulation,"[4]; 2-8° C., T7",0.03 CAD %
same,level in phosphate buffered pH 7.5 formulation,"[4]; 2-8° C., T10",0.04 CAD %
same,level in phosphate buffered pH 7.5 formulation,"[4]; 2-8° C., T13",0.04 CAD %
same,level in phosphate buffered pH 7.5 formulation,"[4]; 2-8° C., T19",<0.03 CAD %
same,stability when stored in aqueous buffered solution,"[4]; 2-8° C., over 18 months",highly unstable
same,level reduced to (detection limit),"[4]; aqueous buffered solution, within 3-6 month of storage at 2-8° C.",0.03 CAD %
same,inhibition of histone-induced RBC aggregation,human RBCs [5],inhibit histone-induced RBC aggregation in a dose dependent manner
same,inhibition of histone-induced RBC lysis under shear,human RBCs [6],inhibit histone-induced lysis under shear in a dose-dependent manner
same,histone-induced platelet aggregation,human platelets,significantly reduced
same,histone-induced platelet degranulation (ATP release),[1],significantly reduced
same,incidence of rapid bilayer rupture,"[7]; histones 1 μM + CBS, 3 of 52 bilayers, within 0.3 to 0.5 min",5.8%
same,average bilayer lifetime,[7]; histones 1 μM in the presence of CBS 10 μM,18 ± 4 min and 36 ± 5 min
same,"protection from histone-induced organ damage (LDH, ALT, creatinine)",mice,protects animals from histone-mediated injury
same,high ALT and creatinine levels (liver and kidney damage),Wistar rats [8]; CBS treated animals,not seen
same,mortality,Wistar rats [8]; CBS treatment group vs controls,no mortalities
same,area of microvascular obstruction,Wistar rats [9],significantly reduced
same,reduction of myocardial necrosis in the ischemic zone,Wistar rats [9],50%
same,histone-mediated deep vein thrombosis,C57BL/6 mice,almost totally inhibited
melezitose sulfate,clot formation,whole blood coagulation,No clotting was detected
same,clot formation,whole blood coagulation; listed as melezitose,no clot was detected

# — patent US11628179B2, “Compounds for treating and preventing extracellular histone mediated pathologies” (priority 2017, dated 2023)
